Experimental findings from patent US20060229316A1, “Novel antiinfective compounds, process for their preparation and pharmaceutical compositions containing them” (priority 2002, published 2006) are described below.

The test system of series [1] is Methicillin resistant Staphylococus aureus 653SP. In words: MIC by microbroth dilution, first column headed SA (guide: MRSA). Type of series: cell-based, Staphylococcus aureus. As to conditions: for MIC: Staphylococcus aureus, read-out: MIC (μg/ml) in vitro activity in gram positive organisms, SA. From the text:
(§1) The pharmaceutically acceptable compounds of the present invention are useful antibacterial agents having a good spectrum of activity in vitro and against standard Gram-positive organisms, which are used to screen for activity against pathogenic bacteria. […] The antibacterial spectrum and potency of a particular compound may be determined in a standard test system. The activity is described in terms of the minimum inhibitory concentration (MIC) determined by microbroth dilution technique as per NCCLS standards.
(§2) The minimum inhibitory concentrations (MIC's) of the compounds for the microorganisms listed in Table A were determined by preparing working solution for each compound of concentration of 128 μg/ml after dissolving it in DMSO. Two-fold serial dilution of the above solution was prepared in duplicates, using Mueller Hinton Broth, in 96 well Tissue culture plate with cover flat bottom wells to give a final volume of […] and concentration of compound ranging from 64 μg/ml-0.12 μg/ml. 30 μg/ml of Standard suspension of each organism which was prepared with turbidity equivalent to the 1:10 diluted 0.5 McFarland standard with density 10^7 CFU/ml, was added to each well to get approximately a density of 10^5 CFU/ml. These 96-well Tissue culture plate containing the test samples and positive and negative controls, were incubated at 37° C. for 16-18 hrs. The wells were visually inspected for growth and were also read at 630 nm by Automated Microplate Reader [(EL800) Trinity biotech.] and the MIC's were recorded as the lowest concentration of drug which inhibits the growth of bacteria.
(§3) The compounds of the present invention have useful activity against a variety of organisms. The in vitro activity of compounds of the present invention can be assessed by standard testing procedures such as the determination of minimum inhibitory concentration (MIC) by standard “Microdilution method” as described elsewhere in the specification. The pharmacokinetic profiling of the compounds were also done according to the protocol described in this specification. The activities of representative compounds of the present invention are given below in the following table.
MRSA: Methicillin resistant Staphylococus aureus 653SP
Background: In broth dilution the organism is exposed to a series of concentrations in liquid medium.

The subject of series [2] is Staphylococcus epidermidis ATCC 12228. In words: MIC by microbroth dilution, SE. It is filed as cell-based.
Source text: as §1, §2, §3
SE: Staphylococcus epidermidis ATCC 12228

Series [3] has as its system Enterococcus faecalis ATCC 29212. The series is described as follows: MIC by microbroth dilution, EF. It is filed as cell-based.
Source text: as §1, §2, §3
EF: Enterococcus faecalis ATCC 29212

For series [4], the system named is Staphylococus aureus ATCC 33591. The series is described as follows: MIC by microbroth dilution, SA. It is filed as cell-based, Staphylococcus aureus. Conditions: for MIC: Staphylococcus aureus.
Source text: as §1, §2, §3
SA: Staphylococus aureus ATCC 33591

Where [5] appears, read: SA, Mueller Hinton Broth, 37° C., 16-18 hrs.
Where [6] appears, read: ATCC12228, Staphylococcus epidermidis ATCC 12228, Mueller Hinton Broth, 37° C., 16-18 hrs, read-out: MIC (μg/ml) in vitro activity in gram positive organisms, SE.
Setting [7] is: ATCC29212, Enterococcus faecalis ATCC 29212, Mueller Hinton Broth, 37° C., 16-18 hrs, read-out: MIC (μg/ml) in vitro activity in gram positive organisms, EF.
Setting [8] is: ATCC33591, Staphylococus aureus ATCC 33591, Mueller Hinton Broth, 37° C., 16-18 hrs, read-out: MIC (μg/ml) in vitro activity in gram positive organisms, SA.
Where [9] appears, read: Staphylococcus epidermidis, ATCC12228, read-out: MIC (μg/ml) in vitro activity in gram positive organisms, SE.
Setting [10] is: Enterococcus faecalis, ATCC29212, read-out: MIC (μg/ml) in vitro activity in gram positive organisms, EF.
Where [11] appears, read: ATCC33591, read-out: MIC (μg/ml) in vitro activity in gram positive organisms, SA.
Where [12] appears, read: Enterococcus faecalis ATCC 29212, Mueller Hinton Broth, 37° C., 16-18 hrs.
[13] abbreviates: Staphylococus aureus ATCC 33591, Mueller Hinton Broth, 37° C., 16-18 hrs.

In brackets after ≈: the same amount, converted by molar mass. Read-outs that look alike come from different tables or passages of the source.

For `CC(=S)NC[C@H]1CN(c2ccc(N3CCN(C(=O)C=Cc4cccs4)CC3)c(F)c2)C(=O)O1` [Compound 70, (S)-N-[3-(3-Fluoro-4-{4-[3-(thiophen-2-yl)-acryloyl]-piperazinyl]-phenyl)-2-oxo-oxazolidin-5-ylmethyl]thioacetamide], the MIC in series [1] (setting [5]) came out at 1 µg/mL (≈ 2.05 µM); in series [2] (setting [6]), 2 µg/mL (≈ 4.09 µM); in series [3] (setting [7]), 0.5 µg/mL (≈ 1.02 µM); in series [4] (setting [8]), 0.5 µg/mL (≈ 1.02 µM).

For `CC(=S)NC[C@H]1CN(c2ccc(N3CCN(C(=O)C=Cc4ccc(O)cc4)CC3)c(F)c2)C(=O)O1` [Compound 64, (S)-N-[3-(3-Fluoro-4-{4-[3-(4-hydroxyphenyl)-acryloyl]-piperazin-1-yl]-phenyl)-2-oxo-oxazolidin-5-ylmethyl]thioacetamide], the MIC in series [1] amounted to 0.5 µg/mL (≈ 1 µM); in series [2] (setting [9]), 0.25 µg/mL (≈ 0.501 µM); in series [3] (setting [10]), 0.25 µg/mL (≈ 0.501 µM); in series [4] (setting [11]) it was 0.25 µg/mL (≈ 0.501 µM).

For `CC(=O)NC[C@H]1CN(c2ccc(N3CCN(C(=O)/C=C/c4cccs4)CC3)c(F)c2)C(=O)O1` [Compound 01], the melting point was in the range of 223 to 225 °C. In addition, the MIC in series [1] (setting [5]) turned out to be 0.5 µg/mL (≈ 1.06 µM). The MIC in series [2] (setting [6]) stood at 1 µg/mL (≈ 2.12 µM). In addition, in series [3] (setting [7]), the MIC was determined as 1 µg/mL (≈ 2.12 µM).

On to `NC(=S)NC[C@H]1CN(c2ccc(N3CCN(C(=O)C=Cc4ccco4)CC3)c(F)c2)C(=O)O1` [Compound 127, (S)-N-[3-(3-Fluoro-4-{4-[3-(furan-2-yl)-acryloyl]-piperazin-1-yl]-phenyl)-2-oxo-oxazolidin-5-ylmethyl]thiourea], for which the MIC in series [1] (setting [5]) turned out to be 2 µg/mL (≈ 4.22 µM); in series [2] (setting [6]) it was 0.5 µg/mL (≈ 1.06 µM); in series [3] (setting [7]), 1 µg/mL (≈ 2.11 µM); in series [4] (setting [8]), 2 µg/mL (≈ 4.22 µM).

On to “(S)-N-[3-{4-(4-(3-Benzo[1,3]-dioxol-5-yl-acryloyl)-piperazin-1-yl}-3-fluorophenyl]-2-oxo-oxazolidin-5-yl methyl thiourea [Compound 125]”, for which the figures for the “MIC (μg/ml) in vitro activity in gram positive organisms, SA” value (shortened to “MIC (μg/ml) in vitro activity … SA”) in series [1] (setting [5]) and in series [4] (setting [13]) were 1 µg/mL and 4 µg/mL, respectively. In series [3] (setting [12]), the “MIC (μg/ml) in vitro activity in gram positive organisms, EF” value (“MIC (μg/ml) in vitro activity … EF” below) amounted to 0.5 µg/mL.

Regarding “(S)-N-[3-(3-Fluoro-4-{4-[3-(4-hydroxyphenyl)-acryloyl]-piperazin-1-yl]-phenyl)-2-oxo-oxazolidin-5-yl methyl thiourea [Compound 124]”, the “MIC (μg/ml) in vitro activity … SA” value in series [1] (setting [5]) and in series [4] (setting [13]) was 1 µg/mL throughout. For the same compound, the “MIC (μg/ml) in vitro activity … EF” value in series [3] (setting [12]) is 1 µg/mL.

For the compound `CC(=O)NC[C@H]1CN(c2ccc(N3CCN(C/C=C/c4ccccc4)CC3)c(F)c2)C(=O)O1` (stereo in doubt), the melting point fell in the range of 134 to 136 °C.

With `CC(=O)NC[C@H]1CN(c2ccc(N3CCN(C(=O)CO)CC3)c(F)c2)C(=O)O1` [Eperzolid, reference compound], the “MIC (μg/ml) in vitro activity … SA” value in series [1] (setting [5]) turned out to be 2 µg/mL (≈ 5.07 µM); in series [4] (setting [13]) it was 4 µg/mL (≈ 10.1 µM). The “MIC (μg/ml) in vitro activity … EF” value in series [3] (setting [12]) was 2 µg/mL (≈ 5.07 µM).

`NC(=S)NC[C@H]1CN(c2ccc(N3CCN(C(=O)/C=C/c4cccs4)CC3)c(F)c2)C(=O)O1` [Compound 123, (3/-N-[3-(3-Fluoro-4-{4-(thiophen-2-yl)-acryloyl]-piperazineyl]-phenyl)-2-oxo-oxazolidin-5-yl-methyl]thiourea] had a melting point of 154 to 157 °C. Also, the MIC in series [1] (setting [5]) amounted to 1 µg/mL (≈ 2.04 µM). The MIC in series [2] (setting [6]) was determined as 0.5 µg/mL (≈ 1.02 µM). Moreover, the MIC in series [3] (setting [7]) amounted to 0.25 µg/mL (≈ 0.511 µM). In addition, the MIC in series [4] (setting [8]) came to 1 µg/mL (≈ 2.04 µM).

Take `CC(=O)NC[C@H]1CN(c2ccc(N3CCOCC3)c(F)c2)C(=O)O1` [Linezolid, reference compound]: the MIC in series [1] (setting [5]) is 2 µg/mL (≈ 5.93 µM); in series [2] (setting [6]), 4 µg/mL (≈ 11.9 µM); in series [3] (setting [7]), 4 µg/mL (≈ 11.9 µM); in series [4] (setting [8]), 4 µg/mL (≈ 11.9 µM).

In the case of `NC(=S)NC[C@H]1CN(c2ccc(N3CCN(C(=O)C=Cc4c[nH]c5ccccc45)CC3)c(F)c2)C(=O)O1` [Compound 126, (S)-N-[3-(3-Fluoro-4-{4-[3-(1H-indol-3-yl)-acryloyl]-piperazin-1-yl]-phenyl)-2-oxo-oxazolidin-5-ylmethyl]thiourea], the MIC in series [1] (setting [5]) was 1 µg/mL (≈ 1.91 µM); in series [2] (setting [6]), 0.5 µg/mL (≈ 0.957 µM); in series [3] (setting [7]), 1 µg/mL (≈ 1.91 µM); in series [4] (setting [8]) it was 1 µg/mL (≈ 1.91 µM).

As to `CC(=O)NC[C@H]1CN(c2ccc(N3CCN(C(=O)C=Cc4ccc(O)cc4)CC3)c(F)c2)C(=O)O1` [Compound 05, (S)-N-[3-(3-Fluoro-4-{4-[3-(4-hydroxyphenyl)-acryloyl]-piperazin-1-yl]-phenyl)-2-oxo-oxazolidin-5-ylmethyl]acetamide], the MIC in series [1] turned out to be 1 µg/mL (≈ 2.07 µM); in series [2] (setting [9]), 0.5 µg/mL (≈ 1.04 µM); in series [3] (setting [10]) it was 0.5 µg/mL (≈ 1.04 µM); in series [4] (setting [11]), 2 µg/mL (≈ 4.14 µM).

For `CC(=S)NC[C@H]1CN(c2ccc(N3CCN(C(=O)C=Cc4ccco4)CC3)c(F)c2)C(=O)O1` [Compound 66, (S)-N-[3-(3-Fluoro-4-{4-[3-(furan-2-yl)-acryloyl]-piperazin-1-yl]-phenyl)-2-oxo-oxazolidin-5-ylmethyl]thioacetamide], the MIC in series [1] (setting [5]) was found to be 1 µg/mL (≈ 2.12 µM); in series [2] (setting [6]) it was 0.5 µg/mL (≈ 1.06 µM); in series [3] (setting [7]), 0.5 µg/mL (≈ 1.06 µM); in series [4] (setting [8]) it was 0.5 µg/mL (≈ 1.06 µM).

The melting point is the temperature, or range, at which the solid turns liquid.
